Here are results for three molecules from ChEMBL document CHEMBL2021770, “Potent and Selective Inhibitors of Long Chain l-2-Hydroxy Acid Oxidase Reduced Blood Pressure in DOCA Salt-Treated Rats” (ACS Med Chem Lett, 2011).

Calls of active or inactive are those of the source. The calls are words filed in the database; no cut-off is given here.

Series [1] deals with T1, 2-Hydroxyacid oxidase 2 (Rattus norvegicus, UniProt Q07523).
T1 sequence (Q07523 whole entry): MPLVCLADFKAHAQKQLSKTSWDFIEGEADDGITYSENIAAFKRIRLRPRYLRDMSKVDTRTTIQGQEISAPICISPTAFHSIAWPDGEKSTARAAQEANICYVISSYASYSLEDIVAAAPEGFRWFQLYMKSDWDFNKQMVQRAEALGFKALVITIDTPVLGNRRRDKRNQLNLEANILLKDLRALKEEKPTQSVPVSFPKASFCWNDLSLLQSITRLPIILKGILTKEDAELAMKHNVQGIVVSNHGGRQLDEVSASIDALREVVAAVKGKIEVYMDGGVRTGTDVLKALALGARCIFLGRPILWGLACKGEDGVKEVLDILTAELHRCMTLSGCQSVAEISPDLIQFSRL
Briefly: Inhibition of rat His6-tagged Hao2 expressed in Escherichia coli BL21/DE3 using 2-hydroxyoctanoic acid as substrate measured every 10 secs by spectrophotometry.

Series [2] can be described thus: Oral bioavailability in rat at 10 mg/kg. The class given is ADME, organism-based. Conditions: in vivo.
The subject of series [3] is Kidney. Briefly: Drug uptake in Wistar rat kidney at 3 mg/kg, po bid administered for 15 days measured 1 hr post-last dose. As to conditions: in vivo. More on the design: dose 3 mg/kg, route oral. It is filed as ADME, organism-based.
Series [4] can be described thus: Volume of distribution at steady state in rat at 1 mg/kg, iv. As to conditions: in vivo, read-out: Vdss. Further details: dose 1 mg/kg, route intravenous. The class given is ADME, organism-based.
Series [5] in a line: Cmax in rat at 10 mg/kg, po. The class given is ADME, organism-based. More on the design: dose 10 mg/kg, route oral. As to conditions: in vivo.
Series [6] in a line: Drug metabolism in rat liver microsomes assessed as metabolic rate per 0.125 mg/mL protein. The class given is ADME, Microsome.
Series [7] can be described thus: Induction of cytochrome P450 at 10 uM. It is filed as ADME.
Series [8] has as its target Cytochrome P450 2D6 (Homo sapiens, UniProt P10635). Description: Inhibition of CYP2D6. It is filed as ADME.
The target in series [9] is Cytochrome P450 2C9 (Homo sapiens, UniProt P11712). Description: Inhibition of CYP2C9. The class given is ADME.
Series [10] in a line: Tmax in rat at 10 mg/kg, po. The class given is ADME, organism-based. Further details: dose 10 mg/kg, route oral. Conditions: in vivo.
Series [11] in a line: AUC (0 to 8 hrs) in rat at 10 mg/kg, po. Further details: time < 8 hr, dose 10 mg/kg, route oral. The class given is ADME, organism-based. As to conditions: plasma.
For series [12], the system named is Kidney. Briefly: Drug uptake in Wistar rat kidney at 3 mg/kg, po bid administered for 15 days measured 12 to 15 hrs post-last dose. It is filed as ADME, organism-based. Further details: dose 3 mg/kg, route oral. As to conditions: in vivo.
The nature of series [13]: Plasma concentration in Wistar rat at 3 mg/kg, po bid administered for 15 days measured 1 hr post-last dose. It is filed as ADME, organism-based. More on the design: dose 3 mg/kg, route oral.
The nature of series [14]: Plasma protein binding in rat. As to conditions: read-out: PPB. The class given is ADME, cell-free.
In series [15] the test system is Plasma. Briefly: Plasma concentration in Wistar rat at 3 mg/kg, po bid administered for 15 days measured 12 to 15 hrs post-last dose. It is filed as ADME, organism-based. Further details: dose 3 mg/kg, route oral. Conditions: in vivo.
Series [16] in a line: Clearance in rat at 1 mg/kg, iv. It is filed as ADME, organism-based. Further details: dose 1 mg/kg, route intravenous. As to conditions: in vivo.
Series [17] concerns the target Cytochrome P450 2C19 (Homo sapiens, UniProt P33261). Briefly: Inhibition of CYP2C19. It is filed as ADME.
The test system of series [18] is Plasma. Briefly: Plasma concentration in Wistar rat at 30 mg/kg, po bid administered for 15 days measured 12 to 15 hrs post-last dose. It is filed as ADME, organism-based. Further details: dose 30 mg/kg, route oral. Conditions: in vivo.
Series [19] can be described thus: Elimination half life in rat at 10 mg/kg, po. It is filed as ADME, organism-based. More on the design: dose 10 mg/kg, route oral. Conditions: in vivo, read-out: beta t1/2 (converted).
Series [20] concerns Kidney. Description: Drug uptake in Wistar rat kidney at 30 mg/kg, po bid administered for 15 days measured 1 hr post-last dose. It is filed as ADME, organism-based. More on the design: dose 30 mg/kg, route oral. As to conditions: in vivo.
Series [21] is described as follows: Plasma concentration in Wistar rat at 30 mg/kg, po bid administered for 15 days measured 1 hr post-last dose. The class given is ADME, organism-based. Further details: dose 30 mg/kg, route oral.
In series [22] the target is T2, Nuclear receptor subfamily 1 group I member 2 (Homo sapiens, UniProt O75469).
T2 sequence (O75469 whole entry): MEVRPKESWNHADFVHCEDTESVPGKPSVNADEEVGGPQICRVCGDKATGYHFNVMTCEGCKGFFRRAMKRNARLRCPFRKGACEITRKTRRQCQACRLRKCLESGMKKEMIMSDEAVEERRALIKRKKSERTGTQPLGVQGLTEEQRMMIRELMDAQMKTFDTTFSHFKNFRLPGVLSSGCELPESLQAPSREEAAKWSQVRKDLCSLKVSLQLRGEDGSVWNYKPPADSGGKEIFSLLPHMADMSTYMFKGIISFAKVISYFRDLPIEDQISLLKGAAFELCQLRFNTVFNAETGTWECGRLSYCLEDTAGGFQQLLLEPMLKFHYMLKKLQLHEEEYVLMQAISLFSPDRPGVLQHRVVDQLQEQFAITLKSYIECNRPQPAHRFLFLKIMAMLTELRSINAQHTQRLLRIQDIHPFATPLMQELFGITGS
Description: Induction of PXR at 100 uM.

The nature of series [23]: Elimination half life in rat at 1 mg/kg, iv. The class given is ADME, organism-based. More on the design: dose 1 mg/kg, route intravenous. Conditions: in vivo, read-out: beta t1/2 (converted).
The target in series [24] is T3, Cytochrome P450 1A2 (Homo sapiens, UniProt P05177).
T3 sequence (P05177 whole entry): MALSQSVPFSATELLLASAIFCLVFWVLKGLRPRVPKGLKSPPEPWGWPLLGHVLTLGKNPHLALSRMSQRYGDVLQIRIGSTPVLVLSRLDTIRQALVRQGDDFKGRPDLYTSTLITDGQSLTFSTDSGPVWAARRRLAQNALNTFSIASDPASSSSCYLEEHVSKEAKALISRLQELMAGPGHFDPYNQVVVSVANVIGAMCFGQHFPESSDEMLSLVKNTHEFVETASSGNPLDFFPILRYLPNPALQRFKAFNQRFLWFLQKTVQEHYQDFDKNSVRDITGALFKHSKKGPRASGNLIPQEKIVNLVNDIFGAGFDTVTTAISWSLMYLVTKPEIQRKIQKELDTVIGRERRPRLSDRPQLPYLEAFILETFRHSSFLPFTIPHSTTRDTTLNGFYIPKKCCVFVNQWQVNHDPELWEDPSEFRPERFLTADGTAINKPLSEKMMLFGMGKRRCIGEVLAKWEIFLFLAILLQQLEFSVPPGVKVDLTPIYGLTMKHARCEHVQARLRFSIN
Briefly: Inhibition of CYP1A2. The class given is ADME.

Series [25] in a line: AUC (0 to 8 hrs) in rat at 1 mg/kg, iv. It is filed as ADME, organism-based. More on the design: time < 8 hr, dose 1 mg/kg, route intravenous. Conditions: plasma.
Series [26] addresses Cytochrome P450 3A4 (Homo sapiens, UniProt P08684). Description: Inhibition of CYP3A4. It is filed as ADME.
Series [27] concerns Rattus norvegicus. Description: Antihypertensive activity in DOCA-salt treated Wistar rat assessed as decrease in systolic blood pressure at 10 mg/kg, po bid administered 29 days after DOCA-salt-challenge for 15 days 12 to 15 hrs post-last dose by plethysmography. The class given is functional, organism-based. Further details: dose 10 mg/kg. Conditions: Artery.

Sequence of Cytochrome P450 3A4 (P08684 whole entry): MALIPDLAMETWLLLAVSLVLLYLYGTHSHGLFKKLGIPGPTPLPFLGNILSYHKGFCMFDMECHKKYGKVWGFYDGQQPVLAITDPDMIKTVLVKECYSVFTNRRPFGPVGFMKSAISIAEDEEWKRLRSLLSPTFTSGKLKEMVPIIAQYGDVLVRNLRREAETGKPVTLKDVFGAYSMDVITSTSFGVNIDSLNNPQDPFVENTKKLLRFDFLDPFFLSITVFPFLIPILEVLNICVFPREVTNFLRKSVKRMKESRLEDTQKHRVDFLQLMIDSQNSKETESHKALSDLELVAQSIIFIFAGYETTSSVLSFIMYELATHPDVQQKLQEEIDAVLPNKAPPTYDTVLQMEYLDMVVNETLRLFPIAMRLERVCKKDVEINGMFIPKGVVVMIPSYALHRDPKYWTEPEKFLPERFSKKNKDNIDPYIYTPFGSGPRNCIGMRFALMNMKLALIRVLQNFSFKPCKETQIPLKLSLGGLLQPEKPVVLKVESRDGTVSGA
Sequence of Cytochrome P450 2C9 (P11712 whole entry): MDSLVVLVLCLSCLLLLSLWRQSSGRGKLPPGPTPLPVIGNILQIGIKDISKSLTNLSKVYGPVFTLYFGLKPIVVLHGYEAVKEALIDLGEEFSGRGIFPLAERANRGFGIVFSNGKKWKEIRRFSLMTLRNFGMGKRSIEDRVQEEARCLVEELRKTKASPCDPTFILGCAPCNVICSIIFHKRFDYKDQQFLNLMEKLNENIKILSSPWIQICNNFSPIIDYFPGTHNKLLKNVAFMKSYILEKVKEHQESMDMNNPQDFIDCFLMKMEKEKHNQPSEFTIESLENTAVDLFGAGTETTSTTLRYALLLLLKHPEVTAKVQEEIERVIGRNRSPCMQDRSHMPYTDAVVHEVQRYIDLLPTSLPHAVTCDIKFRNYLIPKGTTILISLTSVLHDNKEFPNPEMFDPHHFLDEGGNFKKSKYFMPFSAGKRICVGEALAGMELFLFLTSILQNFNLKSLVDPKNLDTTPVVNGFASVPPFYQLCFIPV
Sequence of Cytochrome P450 2D6 (P10635 whole entry): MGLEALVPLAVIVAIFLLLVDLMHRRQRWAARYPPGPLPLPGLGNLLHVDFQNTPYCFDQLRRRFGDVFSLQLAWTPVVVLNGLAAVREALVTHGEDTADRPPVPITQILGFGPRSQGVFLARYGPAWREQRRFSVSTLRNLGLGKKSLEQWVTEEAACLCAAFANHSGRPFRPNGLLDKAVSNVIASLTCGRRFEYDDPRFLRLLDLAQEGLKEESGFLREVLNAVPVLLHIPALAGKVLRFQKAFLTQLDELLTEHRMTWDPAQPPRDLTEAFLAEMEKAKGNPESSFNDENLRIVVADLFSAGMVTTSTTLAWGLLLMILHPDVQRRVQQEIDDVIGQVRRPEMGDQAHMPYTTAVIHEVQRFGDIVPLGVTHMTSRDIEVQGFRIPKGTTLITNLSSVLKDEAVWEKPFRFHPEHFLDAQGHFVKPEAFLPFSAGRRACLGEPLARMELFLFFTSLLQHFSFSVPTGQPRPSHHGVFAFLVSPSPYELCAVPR
Sequence of Cytochrome P450 2C19 (P33261 whole entry): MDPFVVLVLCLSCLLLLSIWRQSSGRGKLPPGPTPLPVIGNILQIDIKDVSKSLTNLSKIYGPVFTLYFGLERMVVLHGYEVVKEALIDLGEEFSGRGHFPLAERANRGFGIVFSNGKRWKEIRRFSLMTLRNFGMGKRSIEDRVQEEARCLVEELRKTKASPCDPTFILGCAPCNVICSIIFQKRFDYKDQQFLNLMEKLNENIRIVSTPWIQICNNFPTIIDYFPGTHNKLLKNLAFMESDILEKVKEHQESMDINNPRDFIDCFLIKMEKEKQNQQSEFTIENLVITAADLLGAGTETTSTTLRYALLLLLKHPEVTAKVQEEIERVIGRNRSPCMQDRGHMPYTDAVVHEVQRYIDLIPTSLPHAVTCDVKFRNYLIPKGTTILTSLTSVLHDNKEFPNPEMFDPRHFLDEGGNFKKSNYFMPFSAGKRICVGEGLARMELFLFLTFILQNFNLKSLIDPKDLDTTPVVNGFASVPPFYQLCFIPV

`Cc1[nH]nc(C(=O)O)c1CCc1ccccc1`: in [1], the IC50 – broadly, the concentration that gives 50% inhibition – amounted to 4.27 µM. This counts as single-digit micromolar.
As for `Cc1[nH]nc(C(=O)O)c1Cc1cc2ccccc2s1`, the bioavailability (commonly dose-corrected exposure relative to a reference, in per cent) in [2] amounted to 53%. The values for the Drug uptake in series [3], in series [12] and in series [20] were 34 nmol/g, 13 nmol/g and 113 nmol/g, respectively. The Vd in series [4] turned out to be 0.14 L/kg. Further, the concentration in [5] peaked (Cmax) at 134 µM. In addition, the Drug metabolism in series [6] came out at 0.02 nmol/min/mg. For the same molecule, the Activity result in [7] and in [22] was “Not Active” in each case. In addition, the IC50 in series [8] is above 10 µM; in series [9], above 10 µM; in [17], above 10 µM; in series [1], 0.3 µM; in series [24], above 10 µM; in [26] it was above 10 µM. Further, the Tmax – broadly, the time at which the peak concentration occurs – in [10] is 0.25 h. Further, the AUC(0-t) (as a rule, the area under the concentration-time curve up to a stated or last time point) at 8 h in [11] was determined as 517 µM·h; in series [25], 97 µM·h. The results for the concentration at 1 h in series [13] and in [21] were 48 µM and 157 µM, respectively. Besides, the fraction unbound in series [14] was below 0.01. In addition, the results for the concentration in [15] and in series [18] were 12 µM and 86 µM, respectively. In addition, the clearance (usually a measure of how efficiently the substance is removed, as volume per time) in series [16] came out at 0.52 mL/min/kg. The half-life in series [19] is 4.1 h; in [23], 3.7 h.
As for `CC(C)NCC(O)COc1ccc(CC(N)=O)cc1` (stereo not drawn), the outcome in series [27] was Active.
